Where no end group is shown, it is not given here. A value given as a limit tells only on which side of the number the result lay.

Data on 24 molecules can be found in patent publication US12679804B2, “2-(3-ethynylbenzyl)-substituted heterocycle derivatives and related uses” (CENTESSA PHARMACEUTICALS (UK) LIMITED, priority 2021, dated 2026).

Test [1] has as its target T1, human orexin type 2 receptor (hOX2R) (Homo sapiens, UniProt O43614).
T1 construct: expressed in transfected cells
T1 sequence (O43614 1-444): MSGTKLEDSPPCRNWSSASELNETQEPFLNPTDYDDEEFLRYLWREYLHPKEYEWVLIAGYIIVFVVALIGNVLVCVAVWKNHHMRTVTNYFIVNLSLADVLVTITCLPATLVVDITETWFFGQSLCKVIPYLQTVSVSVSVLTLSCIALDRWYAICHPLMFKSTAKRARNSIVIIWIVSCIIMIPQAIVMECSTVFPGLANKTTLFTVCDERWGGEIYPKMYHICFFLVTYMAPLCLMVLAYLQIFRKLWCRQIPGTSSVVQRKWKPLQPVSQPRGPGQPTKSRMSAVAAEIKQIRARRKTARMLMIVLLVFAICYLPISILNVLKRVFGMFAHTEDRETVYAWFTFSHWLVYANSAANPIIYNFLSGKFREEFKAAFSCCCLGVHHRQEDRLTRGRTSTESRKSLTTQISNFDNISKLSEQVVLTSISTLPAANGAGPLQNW
As to the kind of experiment: Orexin type 2 receptor agonist activity (FLIPR TETRA intracellular Ca2+ fluorescence). Type of test: cell-based. To be noted: for Emax at 10 µM: value at 10 μM, dilution buffer = 0%, 10 nM human orexin A = 100%, read-out: hOx2 Emax; for EC50: CHO cells expressing hOX2R, area of Ca2+ fluorescence over 2 min, read-out: hOx2 pEC50 (converted). On the procedure:
Stable cell line generation. Obtainment of cells stably expressing either human orexin type 2 or human orexin type 1 receptor: to obtain a stable cell line the Orexin receptor cDNA was inserted into pcDNA3.1(+) plasmid vector and clones identified by G418 drug resistance selection. […] A single clone for OX2R-CHO and OX1R-CHO were grown in bulk and frozen to generate a cell bank for routine screening.
Measurement of orexin type 2 receptor agonist activity. Chinese hamster ovary (CHO) cells expressing human orexin type 2 receptor (hOX2R) or human orexin […] were seeded in each well of 384 well black clear bottom plates (BD Flacon) at 10,000 cells per well and cultured for 24 hr in an Ham's F12 (Gibco) medium containing 10% fetal calf serum (Sigma Aldrich) under the conditions of 37° C., 5% CO2. After removal of the medium, 50 μl of assay buffer 1 (0.1% bovine serum albumin (Sigma Aldrich), 20 mM HEPES (Molecular Dimensions), […] (Sigma Aldrich), 1× Calcium 5 dye (Molecular Devices) in Hank's balanced salt solution (Invitrogen)) was added, and the cells were incubated for 60 min under the conditions of 37° C., 5% CO2. A test compound was dissolved in dimethyl sulfoxide (Sigma Aldrich) to 10 mM, and then diluted with assay buffer 2 (20 mM HEPES, Hank's balanced salt solution, 0.1% bovine serum albumin). For the reaction, a test compound solution (10 μl) was added using Fluorescent Imaging Plate Reader TETRA (FLIPR TETRA: manufactured by Molecular Devices), a fluorescence value (excitation wavelength 488 nm, measurement wavelength 570 nm) of each well was measured every one second for 2 min, and the agonist activity was determined using the area of the fluorescence value as an indicator of intracellular Ca^2+ concentration. The agonist activity of the test compound was calculated assuming that the fluorescence value of the well added with only the dilution buffer was 0% and the fluorescence value of the well added with 10 nM human orexin A (Tocris) buffer was 100%. As used herein, Emax indicates the value at 10 μM concentration when orexin A is converted to a full agonist (maximum value of agonist activity: 100%).

Test [2] concerns mice. The following applies: cited from earlier work.
Where [3] appears, read: ICV, 3 nmol, orexin-neuron ablated mice.

As to `CCS(=O)(=O)NC1CCN(C(=O)C2CCC2)C1Cc1cccc(C#CC2CC2)c1F` (racemic) [Compound 1-19, N-(1-(cyclobutanecarbonyl)-2-(3-(cyclopropylethynyl)-2-fluorobenzyl)pyrrolidin-3-yl)ethanesulfonamide], the maximal response (Emax) (in general, the greatest response seen or fitted, relative to the assay's reference) at 10 µM in test [1] was not below 90%.
For `CCS(=O)(=O)NC1CCN(C(=O)C(C)C)C1Cc1cccc(C#CC2(C)COC2)c1` (racemic) [Compound 1-9, N-(1-isobutyryl-2-(3-((3-methyloxetan-3-yl)ethynyl)benzyl)pyrrolidin-3-yl)ethane-sulfonamide], in test [1], the EC50 was more than 100 nM and the Emax at 10 µM was not below 90%.
Turning to `CCS(=O)(=O)NC1CCN(C(=O)C(C)C)C1Cc1cccc(C#CCOC)c1F` (racemic) [Compound 1-11, N-(2-(2-fluoro-3-(3-methoxyprop-1-yn-1-yl)benzyl)-1-isobutyrylpyrrolidin-3-yl)ethanesulfonamide], in test [1], the EC50 was more than 100 nM and the Emax at 10 µM fell in the range of 70 to 80%.
In the case of `CCS(=O)(=O)NC1CCN(C(=O)N2CCC2)C1Cc1cccc(C#CC2CC2)c1F` (racemic) [Compound 1-18, N-(1-(azetidine-1-carbonyl)-2-(3-(cyclopropylethynyl)-2-fluorobenzyl)pyrrolidin-3-yl)ethanesulfonamide], in test [1], the Emax at 10 µM is not below 90%.
Take `CC1(C#Cc2cccc(C[C@@H]3[C@H](NS(C)(=O)=O)CCCN3C(=O)[C@H]3CCO3)c2F)CC1` (single isomer, unassigned) [Compound 1-4]: in test [1], the EC50 is more than 100 nM and the Emax at 10 µM fell in the range of 60 to 70%.
For `CCNC(=O)N1CC[C@H](NS(C)(=O)=O)[C@@H]1Cc1cccc(C#CC2(C)CC2)c1F` [Compound 1-6, (2S,3S)—N-ethyl-2-(2-fluoro-3-((1-methylcyclopropyl)ethynyl)benzyl)-3-(methylsulfonamido)pyrrolidine-1-carboxamide], the Emax at 10 µM in test [1] is not below 90%.
For `CCS(=O)(=O)NC1CCN(C(=O)N2CCC2)C1Cc1cccc(C#CC2CC2)n1` (racemic) [Compound 1-17, N-(1-(azetidine-1-carbonyl)-2-((6-(cyclopropylethynyl)pyridin-2-yl)methyl)pyrrolidin-3-yl)ethanesulfonamide], in test [1], the EC50 is more than 100 nM and the Emax at 10 µM was 80 to 90%.
`CCS(=O)(=O)NC1CCN(C(=O)C(C)(C)O)C1Cc1cccc(C#Cc2ccccc2)c1` (racemic) [Compound 1-22, N-(1-(2-hydroxy-2-methylpropanoyl)-2-(3-(phenylethynyl)benzyl)-pyrrolidin-3-yl)ethanesulfonamide]: in test [1], the EC50 is more than 100 nM and the Emax at 10 µM is not below 90%.
Take `COC(=O)N1CCC[C@H](NS(C)(=O)=O)[C@@H]1CO[C@H]1CC[C@@H](c2ccccc2)CC1` [TAK-925]: in test [2] (subcutaneous, WT mice), the wakefulness result was “modestly increases wakefulness”.
As to `CCS(=O)(=O)NC1CCN(C(=O)C(C)C)C1Cc1cccc(C#CC(C)(C)C)c1` (racemic) [Compound 1-12, N-(2-(3-(3,3-dimethylbut-1-yn-1-yl)benzyl)-1-isobutyrylpyrrolidin-3-yl) ethane-sulfonamide], in test [1], the EC50 is more than 100 nM and the Emax at 10 µM is not below 90%.
Regarding `CCS(=O)(=O)N[C@H]1CCN(C(=O)N2CCC2)[C@H]1Cc1cccc(C#CC2CC2)c1F` (single isomer, unassigned) [Compound 1-16], in test [1], the EC50 was 1 to 10 nM and the maximum response (Emax) at 10 µM was not below 90%.
`CS(=O)(=O)N[C@H]1CCN(C(=O)[C@H]2CCO2)[C@H]1Cc1cccc(C#CC2(C(F)(F)F)CC2)c1F` [Compound 1-2, N-((2S,3S)-2-(2-fluoro-3-((1-(trifluoromethyl)cyclopropyl)ethynyl)benzyl)-1-((R)-oxetane-2-carbonyl)pyrrolidin-3-yl)methanesulfonamide]: the Emax at 10 µM in test [1] is not below 90%.
As for `CCS(=O)(=O)NC1CCN(C(=O)C(C)C)C1Cc1cccc(C#CC2CCCC2)c1` (racemic) [Compound 1-13, N-(2-(3-(cyclopentylethynyl)benzyl)-1-isobutyrylpyrrolidin-3-yl)ethanesulfonamide], in test [1], the EC50 was more than 100 nM and the maximum response (Emax) at 10 µM was not below 90%.
For `CCS(=O)(=O)NC1CCN(C(=O)C(C)(C)O)C1Cc1cccc(C#CC2CC2)c1` (racemic) [Compound 1-21, N-(2-(3-(cyclopropylethynyl)benzyl)-1-(2-hydroxy-2-methylpropanoyl)pyrrolidin-3-yl)ethanesulfonamide], in test [1], the EC50 was more than 100 nM and the Emax at 10 µM lay in the range of 80 to 90%.
As to `CC1(C#Cc2cccc(C[C@H]3[C@@H](NS(C)(=O)=O)CCN3C(=O)[C@H]3CCO3)c2)CC1` [Compound 1-3, N-((2S,3S)-2-(3-((1-methylcyclopropyl)ethynyl)benzyl)-1-((R)-oxetane-2-carbonyl)pyrrolidin-3-yl)methanesulfonamide], the Emax at 10 µM in test [1] was not below 90%.
The same measure, in the same setting: to `CC1(C#Cc2cccc(C[C@H]3[C@@H](NS(C)(=O)=O)CCCN3C(=O)[C@H]3CCO3)c2F)CC1` (single isomer, unassigned) [Compound 1-5] belongs not below 90%; to `CS(=O)(=O)N[C@H]1CCN(C(=O)N2CCC2)[C@H]1Cc1cccc(C#CC2CCC2)c1F` [Compound 1-7, N-((2S,3S)-1-(azetidine-1-carbonyl)-2-(3-(cyclobutylethynyl)-2-fluorobenzyl)-pyrrolidin-3-yl)methanesulfonamide], not below 90%.
Regarding `CCS(=O)(=O)NC1CCN(C(=O)C(C)C)C1Cc1cccc(C#CC2CC2)c1F` (racemic) [Compound 1-20, N-(2-(3-(cyclopropylethynyl)-2-fluorobenzyl)-1-isobutyrylpyrrolidin-3-yl)ethanesulfonamide], the Emax at 10 µM in test [1] is not below 90%.
Turning to `CCS(=O)(=O)NC1CCN(C(=O)C(C)C)C1Cc1cccc(C#CC2COC2)c1` (racemic) [Compound 1-10, N-(1-isobutyryl-2-(3-(oxetan-3-ylethynyl)benzyl)pyrrolidin-3-yl)ethanesulfonamide], in test [1], the EC50 is more than 100 nM and the Emax at 10 µM was 70 to 80%.
With `CC1(C#Cc2cccc(C[C@H]3[C@@H](NS(C)(=O)=O)CCN3C(=O)[C@H]3CCO3)c2F)CC1` [Compound 1-1, N-((2S,3S)-2-(2-fluoro-3-((1-methylcyclopropyl)ethynyl)benzyl)-1-((R)-oxetane-2-carbonyl)pyrrolidin-3-yl)methanesulfonamide], the Emax at 10 µM in test [1] is not below 90%.
For the molecule `CC1(C#Cc2cccc(C[C@H]3[C@@H](NS(C)(=O)=O)CCN3C(=O)N3CCC3)c2F)CC1` [Compound 1-8, N-((2S,3S)-1-(azetidine-1-carbonyl)-2-(2-fluoro-3-((1-methylcyclopropyl)-ethynyl)benzyl)pyrrolidin-3-yl)methanesulfonamide], in test [1], the EC50 was 1 to 10 nM and the Emax at 10 µM is not below 90%.
Turning to “orexin A: orexin peptide cleaved from prepro-orexin; 10 nM human orexin A (Tocris) defines 100% agonist activity (QPLPDCCRQKTCSCRLYELLHGAGNHAAGILTL; ends and bridges not checked; cysteine pairing not given here; UniProt O43612 34-66, looked up)”, in test [2] (setting [3]), the cataplexy-like behavior entry was “decreases cataplexy-like behavior” and the time spent awake result was “increase time spent awake”.
Turning to `CCS(=O)(=O)N[C@@H]1CCN(C(=O)N2CCC2)[C@@H]1Cc1cccc(C#CC2CC2)c1F` (single isomer, unassigned) [Compound 1-15], in test [1], the EC50 is more than 100 nM and the Emax at 10 µM lay within 70 to 80%.
Turning to `CCS(=O)(=O)NC1CCN(C(=O)C(C)C)C1Cc1cccc(C#CC2CC2)c1` (racemic) [Compound 1-14, N-(2-(3-(cyclopropylethynyl)benzyl)-1-isobutyrylpyrrolidin-3-yl) ethanesulfonamide], in test [1], the EC50 was more than 100 nM and the Emax at 10 µM is not below 90%.
